According to patent US9782385B2, “Artificial tears solution combination” (National Health Research Institutes, priority 2015, dated 2017):

Legend:
[1] = tested on: inflammatory cytokines (IL-1β, IL-6, IL-8, and TNF-α); assay: Gene expression experiment for inflammatory cytokines (Q-PCR) in LPS-induced HCEC; assay type: cell-based, Human; details: LPS 500 ng/ml induced HCEC, 2 hours with test material; compared with the other groups
Experimental: In this experiment, firstly, cultivate the Human Corneal Epithelial Cells (HCEC) for 48 hours, then utilize Lipopolysaccharide (LPS) at concentration of 500 ng/ml to induce HCEC for 3 hours, to make it to produce inflammatory reaction. Afterwards, add in the compound of EGCG and HA to cultivate with HCEC for 2 hours. The Gene Expression Experiment to evaluate Inflammatory cytokines was conducted for 3 days, and the samples for this experiment were obtained by collecting these cells on the third day. Firstly, utilize Trizol reagent to extract Ribonucleic Acid (RNA) of these cells, and then utilize the High-Capacity cDNA Reverse Transcription Kits made by manufacturer ABi to perform Reverse Transcription […] (RT-PCR), to synthesis the complementary deoxyribonucleic acid (cDNA). Subsequently, utilize the TagManR Fast Universal Master Mix (2X) made by manufacturer ABi, to perform Quantitative Real-Time PCR (Q-PCR) on the inflammatory cytokines (IL-1β, IL-6, IL-8, and TNF-α), to detect the gene expression of the inflammation cytokines (IL-1β, IL-6, IL-8, and TNF-α).

[2] = tested on: inflammation cytokines (IL-1β, IL-6, IL-8, and TNF-α); assay: Inflammation cytokines protein expression experiment (ELISA of cornea protein); assay type: in vivo; details: rabbit, BAC-induced dry eye, treatment twice a day for 2 weeks
Text: In this experiment, firstly, a Benzalkonium Chloride (BAC) is dipped onto the eyes of a rabbit 3 times a day for 3 weeks, to induce the rabbit eyes to produce inflammation, and to cause it to have symptoms of moderate dry eye syndrome. Then, utilize various combined compounds of artificial tear solution, HA, and EGCG to proceed with treatments, twice a day for 2 weeks. Then, extract the protein from the rabbit's cornea to perform Enzyme-Linked Immunosorbent Assay (ELISA), to detect the protein expression of the inflammation cytokines (IL-1β, IL-6, IL-8, and TNF-α), and to observe and determine whether the inflammation cytokines were reduced, through treatment of various compounds of artificial tear solution, HA, and EGCG

## O=C(O[C@@H]1Cc2c(O)cc(O)cc2O[C@@H]1c1cc(O)c(O)c(O)c1)c1cc(O)c(O)c(O)c1 [EGCG, Epigallocatechin gallate]
[1]
  Relative Transcription Ratios of the 4 inflammation factors (IL-1β, IL-6, IL-8, TNF-α): does have anti-inflammatory effect
[2]
  concentration of inflammatory cytokines (IL-1β, IL-6, IL-8, and TNF-α) in cornea: has the anti-inflammatory effect
